Test: recombinant barcode read abundance after kanamycin selection (control-corrected) (log10(CPM+1)); higher = more efficient recombination; sequences stand for … in AGTGCAGAGAAAATCGGCCAGTTTTCTCTGCCTGCAGTCCGCATGCCGT…AGATTTATGCAGCGGACTGCCTTTCTCCCAAAGTGATAAACCGGACAGTATCATGGACCGGTTTTCCCGGTAATCCGTATTTGCAAGGTTGGTTTCACT; site = the 11-nt target
Method: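 Pooled E. coli target-specificity screen for the IS621 bridge recombinase. Each library plasmid pairs an 11-nt target (CT core) with a bridge RNA whose target-binding loop (9-nt LTG + 4-nt RTG) is reprogrammed; the rest of the 177-nt WT IS621 bridge RNA scaffold is fixed. The plasmid is co-electroporated with a WT donor plasmid; recombinase is induced with 0.1 mM IPTG and recombinants are selected on kanamycin. Recombinant barcodes are sequenced, converted to CPM, averaged over two biological replicates and corrected by the unselected control CPM. Molecule = full bridge RNA written as DNA: LTG = specificity nt 1-9, RTG = reverse complement of specificity nt 8-11, in the WT scaffold.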
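Further: IS621 recombinase and bridge RNA in Escherichia coli cells.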

Row | Sequence | recombinant barcode read abundance (log10)
1 | ACATTAGCTTGGGTTCTAACCTGTTGCTG (site ACAGTAGCTCA) | 0.18
2 | ACATTAGCTTGGGTTCTAACCTGTTGCTG (site ACATTAGCTCA) | 0.603
3 | ACATTGTCTTGGGTTCTAACCTGTTGCGG (site ACAATGTCTCC) | 0.13
4 | ACATTGTCTTGGGTTCTAACCTGTTGCGG (site ACACTGTCTCC) | 0.236
5 | ACATTGTCTTGGGTTCTAACCTGTTGCGG (site ACAGTGTCTCC) | 0.00595
6 | ACATTGTCTTGGGTTCTAACCTGTTGCGG (site ACATTGTCTCC) | 1.1
7 | ACCAACACTTGGGTTCTAACCTGTTGCTT (site ACCAACACTAA) | 0.115
8 | ACCAACACTTGGGTTCTAACCTGTTGCTT (site TATTTAGCTCC) | 0.259
9 | ACCACGCCTTGGGTTCTAACCTGTTGCCT (site ACCACGCCTAG) | 0.342
10 | ACCACGCCTTGGGTTCTAACCTGTTGCCT (site ATCACGCCTAG) | 0.0537
11 | ACCAGCCCTTGGGTTCTAACCTGTTGCTG (site ACCAGCCCTCA) | 1.38
12 | ACCAGCCCTTGGGTTCTAACCTGTTGCTG (site TGATATTCTAG) | 0.0743
13 | ACCAGTCCTTGGGTTCTAACCTGTTGCTA (site ACCAGTCCTCA) | 0.065
14 | ACCAGTCCTTGGGTTCTAACCTGTTGCTA (site ACCAGTCCTTA) | 0.934
15 | ACCATACCTTGGGTTCTAACCTGTTGCAT (site ACCATACCTAT) | 0.385
16 | ACCATACCTTGGGTTCTAACCTGTTGCAT (site TAGGATTCTGC) | 0.124
17 | ACCCAATCTTGGGTTCTAACCTGTTGCAC (site ACCCAATCTGT) | 1.94
18 | ACCCAATCTTGGGTTCTAACCTGTTGCAC (site TAGGCTACTTG) | 0.0478
19 | ACCCAGCCTTGGGTTCTAACCTGTTGCCT (site ACCCAGCCTAA) | 0.146
20 | ACCCAGCCTTGGGTTCTAACCTGTTGCCT (site ACCCAGCCTAC) | 1.27
21 | ACCCAGCCTTGGGTTCTAACCTGTTGCCT (site ACCCAGCCTAG) | 1.44

Row | Sequence | recombinant barcode read abundance (log10)
22 | ACCCAGCCTTGGGTTCTAACCTGTTGCCT (site ACCCAGCCTAT) | 0.522
23 | ACCCAGTCTTGGGTTCTAACCTGTTGCGG (site ACCCAGTCTCC) | 2.08
24 | ACCCAGTCTTGGGTTCTAACCTGTTGCGG (site GTAAGTGCTAT) | 0.151
25 | ACCCCGTCTTGGGTTCTAACCTGTTGCCT (site ACCCCGTCTAG) | 1.65
26 | ACCCCGTCTTGGGTTCTAACCTGTTGCCT (site ACCCTGTCTCG) | 0.0376
27 | ACCCTGTCTTGGGTTCTAACCTGTTGCCG (site ACCCCGTCTAG) | 0.0728
28 | ACCCTGTCTTGGGTTCTAACCTGTTGCCG (site ACCCTGTCTCG) | 2.44
29 | ACCCTTACTTGGGTTCTAACCTGTTGCCT (site AACCTTACTAG) | 0.0611
30 | ACCCTTACTTGGGTTCTAACCTGTTGCCT (site ACCCTTACTAG) | 1.07
31 | ACCCTTACTTGGGTTCTAACCTGTTGCCT (site AGCCTTACTAG) | 0.00699
32 | ACCCTTACTTGGGTTCTAACCTGTTGCCT (site ATCCTTACTAG) | 0.142
33 | ACCGAGACTTGGGTTCTAACCTGTTGCCT (site ACCGAGACTAG) | 0.224
34 | ACCGAGACTTGGGTTCTAACCTGTTGCCT (site ACCGCGACTAG) | 0.113
35 | ACCGAGACTTGGGTTCTAACCTGTTGCCT (site ACCGGGACTAG) | 0.0279
36 | ACCGAGACTTGGGTTCTAACCTGTTGCCT (site ACCGTGACTAG) | 0.0449
37 | ACCGAGGCTTGGGTTCTAACCTGTTGCCT (site AACGACGCTAG) | 0.193
38 | ACCGAGGCTTGGGTTCTAACCTGTTGCCT (site ACCGAGGCTAG) | 0.824
39 | ACCGCGACTTGGGTTCTAACCTGTTGCCT (site ACCGAGACTAG) | 0.0792
40 | ACCGCGACTTGGGTTCTAACCTGTTGCCT (site ACCGCGACTAG) | 0.0908
41 | ACCGCGACTTGGGTTCTAACCTGTTGCCT (site ACCGGGACTAG) | 0.218
42 | ACCGCGACTTGGGTTCTAACCTGTTGCCT (site ACCGTGACTAG) | 0.121

Row | Sequence | recombinant barcode read abundance (log10)
43 | ACCGCTTCTTGGGTTCTAACCTGTTGCCT (site AACGCTTCTAG) | 0.096
44 | ACCGCTTCTTGGGTTCTAACCTGTTGCCT (site ACCGCTTCTAG) | 0.494
45 | ACCGCTTCTTGGGTTCTAACCTGTTGCCT (site AGCGCTTCTAG) | 0.0685
46 | ACCGCTTCTTGGGTTCTAACCTGTTGCCT (site ATCGCTTCTAG) | 0.329
47 | ACCGTAGCTTGGGTTCTAACCTGTTGCCT (site ACCGTACCTAG) | 0.33
48 | ACCGTAGCTTGGGTTCTAACCTGTTGCCT (site ACCGTAGCTAG) | 1.07
49 | ACCGTGACTTGGGTTCTAACCTGTTGCCT (site ACCGAGACTAG) | 0.0423
50 | ACCGTGACTTGGGTTCTAACCTGTTGCCT (site ACCGCGACTAG) | 0.272
51 | ACCGTGACTTGGGTTCTAACCTGTTGCCT (site ACCGGGACTAG) | 0.0292
52 | ACCGTGACTTGGGTTCTAACCTGTTGCCT (site ACCGTGACTAG) | 1.96
53 | ACCTGACCTTGGGTTCTAACCTGTTGCGG (site ACCTGACCTCC) | 1.6
54 | ACCTGACCTTGGGTTCTAACCTGTTGCGG (site CGGACTGCTAG) | 0.12
55 | ACCTGCCCTTGGGTTCTAACCTGTTGCCT (site ACCTGACCTAG) | 0.154
56 | ACCTGCCCTTGGGTTCTAACCTGTTGCCT (site ACCTGCCCTAG) | 1.38
57 | ACCTGCCCTTGGGTTCTAACCTGTTGCCT (site ACCTGGCCTAG) | 0.0614
58 | ACCTGCCCTTGGGTTCTAACCTGTTGCCT (site ACCTGTCCTAG) | 0.232
59 | ACCTGTACTTGGGTTCTAACCTGTTGCCT (site ACCAGTACTAG) | 0.0531
60 | ACCTGTACTTGGGTTCTAACCTGTTGCCT (site ACCCGTACTAG) | 0.147
61 | ACCTGTACTTGGGTTCTAACCTGTTGCCT (site ACCGGTACTAG) | 0.0956
62 | ACCTGTACTTGGGTTCTAACCTGTTGCCT (site ACCTGTACTAG) | 0.183
63 | ACCTTAGCTTGGGTTCTAACCTGTTGCGG (site ACCCTAACTCC) | 0.263

Row | Sequence | recombinant barcode read abundance (log10)
64 | ACCTTAGCTTGGGTTCTAACCTGTTGCGG (site ACCTTAGCTCC) | 1.79
65 | ACCTTGCCTTGGGTTCTAACCTGTTGCCT (site ACATTGCCTAG) | 0.178
66 | ACCTTGCCTTGGGTTCTAACCTGTTGCCT (site ACCTTGCCTAG) | 0.012
67 | ACCTTGCCTTGGGTTCTAACCTGTTGCCT (site ACGTTGCCTAG) | 0.875
68 | ACCTTGCCTTGGGTTCTAACCTGTTGCCT (site ACTTTGCCTAG) | 0.0414
69 | ACGAATCCTTGGGTTCTAACCTGTTGCTT (site ACGAATCCTAA) | 0.423
70 | ACGAATCCTTGGGTTCTAACCTGTTGCTT (site ACGACTCCTAA) | 0.0122
71 | ACGAATCCTTGGGTTCTAACCTGTTGCTT (site ACGAGTCCTAA) | 0.461
72 | ACGAATCCTTGGGTTCTAACCTGTTGCTT (site ACGATTCCTAA) | 0.0624
73 | ACGACTCCTTGGGTTCTAACCTGTTGCTG (site ACGACTCCTCA) | 0.485
74 | ACGACTCCTTGGGTTCTAACCTGTTGCTG (site ACGCCTCCTCA) | 0.0825
75 | ACGACTCCTTGGGTTCTAACCTGTTGCTG (site ACGGCTCCTCA) | 0.0665
76 | ACGACTCCTTGGGTTCTAACCTGTTGCTG (site ACGTCTCCTCA) | 0.0836
77 | ACGACTCCTTGGGTTCTAACCTGTTGCTT (site ACGAATCCTAA) | 0.224
78 | ACGACTCCTTGGGTTCTAACCTGTTGCTT (site ACGACTCCTAA) | 0.0167
79 | ACGACTCCTTGGGTTCTAACCTGTTGCTT (site ACGAGTCCTAA) | 0.0152
80 | ACGACTCCTTGGGTTCTAACCTGTTGCTT (site ACGATTCCTAA) | 0.0399
81 | ACGACTTCTTGGGTTCTAACCTGTTGCCT (site ACGACTACTAG) | 0.0265
82 | ACGACTTCTTGGGTTCTAACCTGTTGCCT (site ACGACTCCTAG) | 0.167

Source: the supplement of paper PMC11208160
